Results from patent US8946257B2, “N-containing heteroaryl derivatives as JAK3 kinase inhibitors” (Vectura Limited, priority 2009, dated 2015).

Target: T1, catalytic domain of human JAK2 (Homo sapiens, UniProt O60674)
T1 construct: the catalytic domain of human JAK2
Test: Inhibition of JAK2 activity (Z'-Lyte Kinase Assay kit-Tyr 6 Peptide)
Format: biochemical
Protocol: The inhibition of JAK2 kinase activity was determined in 384-well assay microplates using the Z′-Lyte® Kinase Assay kit-Tyr 6 Peptide kit, supplied by Invitrogen (Ref: PV4122), following the manufacturer's instructions.
In a final volume of 10 μL per well, 2.5 μL of the product to be tested dissolved in 4% DMSO (final concentration of the product to be tested, 0.1-10000 nM) was incubated with 0.5 μg/well of the catalytic domain of human JAK2, 2 μM of the substrate peptide Z′-Lyte® Tyr 6 and 16 μM of ATP; all components were dissolved in 50 mM pH 7.5 Hepes buffer, 10 mM Magnesium chloride (II), 1 mM EGTA and 0.01% Brij® 35. The reaction was started by the addition of said 16 μM ATP; after incubation for 1 hour at 25° C., 5 μL of A Z′-Lyte® Tyr 6 development reagent was added and the mixture was incubated for 1 hour at 25° C. Phosphorylation was then quantified in each well using a Safire2® fluorescence microplate reader from Tecan.

T1 sequence (O60674 849-1124 limits assumed): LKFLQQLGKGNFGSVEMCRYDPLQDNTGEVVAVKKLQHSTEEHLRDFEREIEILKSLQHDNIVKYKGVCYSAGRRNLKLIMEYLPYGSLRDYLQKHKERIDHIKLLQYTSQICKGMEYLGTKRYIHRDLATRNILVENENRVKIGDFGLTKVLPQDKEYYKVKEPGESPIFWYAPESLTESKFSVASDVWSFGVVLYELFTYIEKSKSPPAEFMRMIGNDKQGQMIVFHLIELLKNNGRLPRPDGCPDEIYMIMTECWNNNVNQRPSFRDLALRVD

| Structure (SMILES) | inhibition at 1 µM [%] |
| --- | --- |
| O=c1[nH]c2cnc(-c3cnn4ccccc34)nc2n1C1CCOCC1 [Example 3, 2-(Pyrazolo[1,5-a]pyridin-3-yl)-9-(tetrahydro-2H-pyran-4-yl)-7H-purin-8(9H)-one] | > 50 |
| CC(C)(C)OC(=O)N1CCC[C@H](n2c(=O)[nH]c3cnc(-c4cnn5ccccc45)nc32)C1 [Example 3b, (S)-tert-butyl 3-(8-oxo-2-(pyrazolo[1,5-a]pyridin3-yl)-7H-purin-9(8H)-yl)piperidine-1-carboxylate] | > 50 |
| O=c1[nH]c2cnc(-c3cnn4ccccc34)nc2n1C1CCOc2c(F)cccc21 (stereo not shown) [Example 3d, 9-(8-fluorochroman-4-yl)-2-(pyrazolo[1,5-a]pyridin-3-yl)-7H-purin-8(9H)-one] | > 50 |
| COC(=O)[C@H](C)n1c(=O)[nH]c2cnc(-c3cnn4ccccc34)nc21 [Example 3e, methyl (2S)-2-(8-oxo-2-(pyrazolo[1,5-a]pyridin-3-yl)-7,8-dihydro-9H-purin-9-yl)propanoate] | > 50 |
| Cn1c(=O)n(C2CCOc3c(F)cccc32)c2nc(-c3cnn4ccccc34)ncc21 (stereo not shown) [Example 4c, 9-(8-fluorochroman-4-yl)-7-methyl-2-(pyrazolo[1,5-a]pyridin-3-yl)-7H-purin-8(9H)-one] | > 50 |
| Cn1c(=O)n([C@H]2CCCN(C(=O)OC(C)(C)C)C2)c2nc(-c3cnn4ccccc34)ncc21 [Example 5, (S)-tert-Butyl 3-(7-methyl-8-oxo-2-(pyrazolo[1,5-a]pyridine-3-yl)-7H-purin-9(8H)-yl)piperidine-1-carboxylate] | > 50 |
| Cn1c(=O)n(C2CCOCC2)c2nc(-c3cnn4ccccc34)ncc21 [Example 5a, 7-methyl-2-(pyrazolo[1,5-a]pyridin-3-yl)-9-(tetrahydro-2H-pyran-4-yl)-7H-purin-8(9H)-one] | > 50 |
| Cn1c(=O)n(C2CCOCC2)c2nc(-c3cnn4ccc(C#N)cc34)ccc21 [Example 5b, 3-(1-methyl-2-oxo-3-(tetrahydro-2H-pyran-4-yl)-2,3-dihydro-1H-imidazo[4,5-b]pyridin-5-yl)pyrazolo[1,5-a]pyridine-5-carbonitrile] | > 50 |
| Cn1c(=O)n(C2CCC(F)(F)CC2)c2nc(-c3cnn4ccc(C#N)cc34)ncc21 [Example 5e, 3-(9-(4,4-difluorocyclohexyl)-7-methyl-8-oxo-8,9-dihydro-7H-purin-2-yl)pyrazolo[1,5-a]pyridine-5-carbonitrile] | > 50 |
| Cn1c(=O)n(C2CCS(=O)(=O)C2)c2nc(-c3cnn4ccc(C#N)cc34)ncc21 (stereo not shown) [Example 5f, 3-(9-(1,1-dioxotetrahydrothien-3-yl)-8,9-dihydro-7-methyl-8-oxopurin-2-yl)pyrazolo[1,5-a]pyridine-5-carbonitrile] | > 50 |
| Cn1c(=O)n(Cc2ccccc2F)c2nc(-c3cnn4ccc(C#N)cc34)ncc21 [Example 5h, 3-(9-(2-fluorobenzyl)-7-methyl-8-oxo-8,9-dihydro-7H-purin-2-yl)pyrazolo[1,5-a]pyridine-5-carbonitrile] | > 50 |
| CC(=O)N1CCC(n2c(=O)n(C)c3cnc(-c4cnn5ccc(C(F)(F)F)cc45)nc32)CC1 [Example 5i, 9-(1-acetylpiperidin-4-yl)-7-methyl-2-(5-(trifluoromethyl)pyrazolo[1,5-a]pyridin-3-yl)-7H-purin-8(9H)-one] | > 50 |
| N#CCC(=O)N1CCC[C@H](n2c(=O)[nH]c3ccc(-c4cnn5ccccc45)nc32)C1 [Example 7p, (S)-3-oxo-3-(3-(2-oxo-5-(pyrazolo[1,5-a]pyridin-3-yl)-1H-imidazo[4,5-b]pyridin-3(2H)-yl)piperidin-1-yl)propanenitrile] | > 50 |

Continued, values first:

| inhibition at 1 µM [%] | Structure (SMILES) |
| --- | --- |
| > 50 | CC(C)C(=O)N1CCC[C@H](n2c(=O)[nH]c3ccc(-c4cnn5ccccc45)nc32)C1 [Example 8d, (S)-3-(1-isobutyrylpiperidin-3-yl)-5-(pyrazolo[1,5-a]pyridin-3-yl)-1H-imidazo[4,5-b]pyridin-2(3H)-one] |
| > 50 | CS(=O)(=O)N1CCC[C@H](n2c(=O)[nH]c3cnc(-c4cnn5ccccc45)nc32)C1 [Example 9a, (S)-9-(1-(methylsulfonyl)piperidin-3-yl)-2-(pyrazolo[1,5-a]pyridin-3-yl)-7H-purin-8(9H)-one] |
| > 50 | CCCS(=O)(=O)N1CCC[C@H](n2c(=O)[nH]c3cnc(-c4cnn5ccc(C#N)cc45)nc32)C1 [Example 9b, (S)-3-(8-oxo-9-(1-(propylsulfonyl)piperidin-3-yl)-8,9-dihydro-7H-purin-2-yl)pyrazolo[1,5-a]pyridine-5-carbonitrile] |
| > 50 | N#Cc1ccn2ncc(-c3ncc4[nH]c(=O)n([C@H]5CCCN(S(=O)(=O)CC(F)(F)F)C5)c4n3)c2c1 [Example 9c, (S)-3-(8-oxo-9-(1-(2,2,2-trifluoroethylsulfonyl)piperidin-3-yl)-8,9-dihydro-7H-purin-2-yl)pyrazolo[1,5-a]pyridine-5-carbonitrile] |
| > 50 | Cn1c(=O)n([C@H]2CCCN(S(C)(=O)=O)C2)c2nc(-c3cnn4ccccc34)ccc21 [Example 9f, (S)-1-methyl-3-(1-(methylsulfonyl)piperidin-3-yl)-5-(pyrazolo[1,5-a]pyridin-3-yl)-1H-imidazo[4,5-b]pyridin-2(3H)-one] |
| > 50 | Cc1ccn2ncc(-c3ncc4[nH]c(=O)n([C@H]5CCCN(S(C)(=O)=O)C5)c4n3)c2c1 [Example 9g, (S)-2-(5-methylpyrazolo[1,5-a]pyridin-3-yl)-9-(1-(methylsulfonyl)piperidin-3-yl)-7H-purin-8(9H)-one] |
| > 50 | N#Cc1ccn2ncc(-c3ncc4[nH]c(=O)n([C@H]5CCCN(C(=O)CO)C5)c4n3)c2c1 [Example 10a] |
| > 50 | CC(C)(O)C(=O)N1CCC[C@H](n2c(=O)[nH]c3cnc(-c4cnn5ccc(C#N)cc45)nc32)C1 [Example 10b] |
| > 50 | CCC(CC)C(=O)N1CCC[C@H](n2c(=O)[nH]c3cnc(-c4cnn5ccc(C#N)cc45)nc32)C1 [Example 10e] |
| > 50 | N#Cc1ccn2ncc(-c3ncc4[nH]c(=O)n([C@H]5CCCN(C(=O)CC(F)(F)F)C5)c4n3)c2c1 [Example 10h] |
| > 50 | CCC(=O)N1CCC[C@H](n2c(=O)[nH]c3cnc(-c4cnn5ccc(C)cc45)nc32)C1 [Example 10i] |
| > 50 | COCC(=O)N1CCC[C@H](n2c(=O)n(C(=O)COC)c3cnc(-c4cnn5ccc(C)cc45)nc32)C1 [Example 10k] |
| > 50 | CC(=O)N1CCC[C@H](n2c(=O)[nH]c3cnc(-c4cnn5ccc(C)cc45)nc32)C1 [Example 10l] |
| > 50 | Cc1ccn2ncc(-c3ncc4[nH]c(=O)n([C@H]5CCCN(C(=O)CO)C5)c4n3)c2c1 [Example 10m] |
| > 50 | N#Cc1ccn2ncc(-c3ncc4[nH]c(=O)n([C@H]5CCCN(C(=O)C6CC6)C5)c4n3)c2c1 [Example 10n] |
| > 50 | CCNC(=O)[C@@H](C)n1c(=O)[nH]c2cnc(-c3cnn4ccc(C#N)cc34)nc21 [Example 15f] |
| > 50 | C[C@H](C(=O)N(C)C)n1c(=O)[nH]c2cnc(-c3cnn4ccc(C#N)cc34)nc21 [Example 15h] |
| > 50 | C[C@@H](C(=O)NCC(F)(F)F)n1c(=O)[nH]c2cnc(-c3cnn4ccc(C#N)cc34)nc21 [Example 15i] |
